# Test results as given in ChEMBL document CHEMBL2331557, “Antidepressant abietane diterpenoids from Chinese eaglewood” (J Nat Prod, 2013).
# Target: Sodium-dependent serotonin transporter (Rattus norvegicus, UniProt P31652)
# Experiment: Inhibition of [3H]5-HT reuptake at SERT in rat brain synaptosomes
# Type: subcellular
# Sodium-dependent serotonin transporter, sequence (P31652 whole entry): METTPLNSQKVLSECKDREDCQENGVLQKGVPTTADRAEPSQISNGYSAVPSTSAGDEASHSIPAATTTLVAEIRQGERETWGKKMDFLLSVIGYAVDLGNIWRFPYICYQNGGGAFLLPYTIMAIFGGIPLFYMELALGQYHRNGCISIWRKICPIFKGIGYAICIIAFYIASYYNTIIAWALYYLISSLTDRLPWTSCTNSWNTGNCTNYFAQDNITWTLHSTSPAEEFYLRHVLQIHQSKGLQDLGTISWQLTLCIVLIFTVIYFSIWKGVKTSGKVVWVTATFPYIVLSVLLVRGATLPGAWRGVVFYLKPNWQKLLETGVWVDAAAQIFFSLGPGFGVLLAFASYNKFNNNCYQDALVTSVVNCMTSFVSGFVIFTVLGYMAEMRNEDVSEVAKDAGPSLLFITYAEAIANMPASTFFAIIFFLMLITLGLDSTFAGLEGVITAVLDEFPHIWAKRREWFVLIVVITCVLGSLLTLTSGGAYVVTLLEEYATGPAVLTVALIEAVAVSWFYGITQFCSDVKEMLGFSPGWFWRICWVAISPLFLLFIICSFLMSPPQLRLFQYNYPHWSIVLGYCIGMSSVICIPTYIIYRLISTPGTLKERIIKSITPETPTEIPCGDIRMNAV
row,Structure (SMILES),IC50
1,CC(C)[C@@]1(O)C=C2[C@H](O)C[C@@H]3[C@](C)(CCC[C@@]3(C)C(=O)O)[C@H]2C[C@@H]1O [AQUILARABIETIC ACID B],3200 nM

# Species: Rattus norvegicus
# Experiment: Inhibition of [3H]NE reuptake at NET in rat brain synaptosomes at 10 uM
# Type: subcellular
row,Structure (SMILES),inhibition
1,C=C(C)c1ccc2c(c1)[C@H](O)C[C@H]1[C@](C)(C(=O)O)CCC[C@]21C,73.8%
2,C[C@]12CCC[C@@](C)(C(=O)O)[C@@H]1CC(=O)C1CC(=O)CC[C@@H]12 (some centres undefined),18.9%
3,CC(C)[C@@]12CC[C@H]3C(=C[C@@H]4OC(=O)[C@]5(C)CCC[C@@]3(C)[C@@H]45)[C@@H]1O2,8.1%
4,CC(C)[C@@]12C=C3[C@H](O)C[C@@H]4[C@](C)(CCC[C@@]4(C)C(=O)O)[C@H]3C[C@@H]1OC(C)(C)O2,37.6%
5,CCO[C@H]1C[C@H]2C(=CC[C@@H]3[C@]2(C)CCC[C@@]3(C)C(=O)O)C=C1C(C)C,13.4%
6,CC(C)(O)[C@]1(O)CCC2=C(C(=O)C[C@H]3[C@](C)(C(=O)O)CCC[C@]23C)[C@H]1O,0%
7,CC(C)[C@]1(O)C=C2[C@H](O)C[C@@H]3[C@](C)(CCC[C@@]3(C)C(=O)O)[C@H]2C[C@H]1O,34.4%
8,CNCC[C@H](Oc1cccc2ccccc12)c1cccs1,81.4%
9,CC(C)[C@]1(O)CC[C@H]2C(=C[C@H](O)[C@@H]3[C@]2(C)CCC[C@@]3(C)C(=O)O)[C@H]1O,37.2%
10,CC(C)[C@@]1(O)C=C2[C@H](O)C[C@@H]3[C@](C)(CCC[C@@]3(C)C(=O)O)[C@H]2C[C@@H]1O [AQUILARABIETIC ACID B],39.1%
11,COC(C)(C)c1ccc2c(c1)[C@H](O)C[C@H]1[C@](C)(C(=O)O)CCC[C@]21C,70.4%
12,CC(C)[C@@]1(O)C=C2[C@H](O)C[C@H]3[C@](C)(C(=O)O)CCC[C@]3(C)[C@@]2(O)CC1 [AQUILARABIETIC ACID A],81.8%

# System: not listed separately
# Experiment: Inhibition of [3H]NE reuptake at NET in rat brain synaptosomes
# Type: subcellular
row,Structure (SMILES),IC50
1,CC(C)[C@@]1(O)C=C2[C@H](O)C[C@H]3[C@](C)(C(=O)O)CCC[C@]3(C)[C@@]2(O)CC1 [AQUILARABIETIC ACID A],910 nM
